We go through eight compounds from PubChem BioAssay (NCI).

Test systems include MDA-MB-231 breast; RXF 393 renal; OVCAR-5 ovarian; NCI-H23 lung; SW-620 colon; A498 renal; NCI-H522 lung; SF-295 CNS; MOLT-4 leukemia; UACC-257 melanoma.
Common to all, as to test: DTP human tumour cell line panel, 48 h

Where “and” joins values, the source holds several entries; their conditions need not be identical. Equal entries are not always repeated.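 96-well plates; 48 h exposure; 5 concentrations. Endpoints by linear interpolation between flanking doses. Not reached: highest tested concentration assigned. GI50: concentration for 50% inhibition of growth. At the TGI there is no net growth.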 Where only a bound is given, the exact number is not on record here.

As to `Cc1nc2sccn2c1/C=C1/C(=O)Nc2ccccc21`, the GI50 was 4.53 µM with MDA-MB-231 breast; 19.7 µM in the experiment with RXF 393 renal; 38.3 µM with OVCAR-5 ovarian; more than 30.3 µM in the experiment with NCI-H23 lung; 3.06 µM in the experiment on SW-620 colon; 1.68 µM with A498 renal. In addition, the GI50 in the experiment with NCI-H522 lung is 1.85 µM; with SF-295 CNS, 3.01 µM; with MOLT-4 leukemia, 4.83 µM; in the experiment on UACC-257 melanoma it was more than 100 µM. Moreover, the total growth inhibition concentration (TGI) with MDA-MB-231 breast is more than 82.5 µM; with RXF 393 renal, more than 80.9 µM; in the experiment with OVCAR-5 ovarian, more than 100 µM; in the experiment on NCI-H23 lung it was more than 100 µM; in the experiment on SW-620 colon it was more than 100 µM; in the experiment with A498 renal, 9.72 µM. Besides, the TGI with NCI-H522 lung is 22 µM; with SF-295 CNS, more than 26.5 µM; in the experiment with MOLT-4 leukemia, more than 31.6 µM; with UACC-257 melanoma it was more than 100 µM.

Take `COc1ccc(-c2[nH]ncc2-c2cc3c(c(OC)c2)OCC(=O)N3)cc1`: the GI50 is 1.21 µM in the experiment with MDA-MB-231 breast; 0.392 µM in the experiment on RXF 393 renal; 2.17 µM in the experiment on OVCAR-5 ovarian; 1.46 µM in the experiment on NCI-H23 lung; 0.356 µM in the experiment with SW-620 colon; 0.17 µM with A498 renal. The GI50 is 0.247 µM with NCI-H522 lung, 0.398 µM in the experiment on SF-295 CNS, 0.528 µM in the experiment with MOLT-4 leukemia and 3.23 µM in the experiment on UACC-257 melanoma. Besides, the concentration for total growth inhibition (TGI) in the experiment with MDA-MB-231 breast is more than 100 µM; in the experiment on RXF 393 renal it was 2.55 µM; in the experiment on OVCAR-5 ovarian, more than 100 µM; in the experiment on NCI-H23 lung it was more than 77.7 µM; in the experiment with SW-620 colon, more than 54 µM; with A498 renal, 0.646 µM. Besides, the TGI is 6.33 µM in the experiment with NCI-H522 lung, 15.2 µM in the experiment on SF-295 CNS, more than 34.6 µM in the experiment on MOLT-4 leukemia and more than 72.4 µM in the experiment on UACC-257 melanoma.

Consider `Cc1ccc(NCCCN2CCN(CCCNc3ccc(C)c4sc5ccccc5c(=O)c34)CC2)c2c(=O)c3ccccc3sc12`, for which the TGI in the experiment on MDA-MB-231 breast, in the experiment with RXF 393 renal, in the experiment with OVCAR-5 ovarian, in the experiment with NCI-H23 lung, in the experiment with SW-620 colon and with A498 renal was more than 100 µM each time. Moreover, the TGI in the experiment with NCI-H522 lung, in the experiment on SF-295 CNS, with MOLT-4 leukemia and in the experiment with UACC-257 melanoma was more than 100 µM in each case.

With `CNC(=O)c1cc(COc2nnc(Nc3ccc(Cl)cc3)c3ccoc23)ccn1`, the GI50 with MDA-MB-231 breast was 3.43 µM and > 10 µM; with RXF 393 renal, 2.99 µM and 9.09 µM; in the experiment on OVCAR-5 ovarian, 12.3 µM and > 10 µM; in the experiment with NCI-H23 lung, 11.1 µM and > 10 µM; in the experiment with SW-620 colon, 21.1 µM and > 10 µM; in the experiment on A498 renal it was 6.65 µM and > 10 µM. Further, the GI50 was 2.85 µM and 8.83 µM in the experiment on NCI-H522 lung; 6.39 µM and > 10 µM with SF-295 CNS; 22.6 µM and > 10 µM with MOLT-4 leukemia; 6.3 µM and > 10 µM in the experiment on UACC-257 melanoma. Also, the TGI is 13.8 µM and > 10 µM in the experiment on MDA-MB-231 breast; 11 µM and > 10 µM in the experiment on RXF 393 renal; 38.9 µM and > 10 µM with OVCAR-5 ovarian; 37.8 µM and > 10 µM in the experiment on NCI-H23 lung; 56.6 µM and > 10 µM in the experiment with SW-620 colon; 21.9 µM and > 10 µM in the experiment on A498 renal. Moreover, the concentration for total growth inhibition (TGI) in the experiment on NCI-H522 lung was 11.9 µM and > 10 µM; in the experiment with SF-295 CNS it was 24.9 µM and > 10 µM; in the experiment with MOLT-4 leukemia, more than 81.3 µM; in the experiment with UACC-257 melanoma, 35.6 µM and > 10 µM.

With `C=CC(=O)Nc1ccc(Nc2nccc(-c3ccc(N4CCCC4)c(C#N)c3)n2)cc1`, the GI50 in the experiment on MDA-MB-231 breast is more than 25 µM; in the experiment with RXF 393 renal, 0.545 µM; in the experiment with OVCAR-5 ovarian, more than 25 µM; in the experiment on NCI-H23 lung, more than 25 µM; with SW-620 colon, 21.7 µM; with A498 renal, 4.82 µM. The GI50 was 9.97 µM in the experiment on NCI-H522 lung, 9.44 µM in the experiment on SF-295 CNS, 7.43 µM in the experiment on MOLT-4 leukemia and 5.37 µM in the experiment with UACC-257 melanoma. For the same compound, the TGI in the experiment with MDA-MB-231 breast was more than 25 µM; in the experiment with RXF 393 renal, 1.71 µM; in the experiment on OVCAR-5 ovarian it was more than 25 µM; in the experiment on NCI-H23 lung it was more than 25 µM; in the experiment with SW-620 colon it was more than 25 µM; in the experiment with A498 renal, 24.9 µM. The concentration for total growth inhibition (TGI) in the experiment with NCI-H522 lung was more than 25 µM; with SF-295 CNS it was more than 25 µM; with MOLT-4 leukemia, more than 25 µM; with UACC-257 melanoma, 17 µM.

Take `Cc1c2cnccc2c(C)c2c1c1cc(C3OCCCO3)ccc1n2C`: the GI50 in the experiment on MDA-MB-231 breast is 0.322 µM; with RXF 393 renal, 0.172 µM; with OVCAR-5 ovarian, 0.436 µM; in the experiment on NCI-H23 lung, 0.215 µM; with SW-620 colon, 0.205 µM; with A498 renal, 0.139 µM. The GI50 in the experiment on NCI-H522 lung is 0.466 µM; in the experiment on SF-295 CNS, 0.348 µM; in the experiment with MOLT-4 leukemia, 0.332 µM; in the experiment on UACC-257 melanoma, 0.343 µM. In addition, the TGI came to 1.8 µM in the experiment on MDA-MB-231 breast; 0.921 µM in the experiment on RXF 393 renal; 3.7 µM in the experiment with OVCAR-5 ovarian; 1.21 µM with NCI-H23 lung; 1.64 µM in the experiment with SW-620 colon; 0.52 µM in the experiment with A498 renal. Besides, the TGI with NCI-H522 lung was 2.48 µM; in the experiment on SF-295 CNS, 1.9 µM; in the experiment with MOLT-4 leukemia, 1.74 µM; in the experiment with UACC-257 melanoma, 1.8 µM.

As to `COc1cc2c(/C=N\N=C(N)N)c(Cl)[nH]c2cc1C`, the GI50 with MDA-MB-231 breast was 6.4 µM; with RXF 393 renal, 14.8 µM; with OVCAR-5 ovarian it was 15.2 µM; in the experiment with NCI-H23 lung, 14.1 µM; in the experiment with SW-620 colon, 14.7 µM; in the experiment with A498 renal it was 19.9 µM. Besides, the GI50 with NCI-H522 lung was 21.4 µM; in the experiment with SF-295 CNS, 8.28 µM; in the experiment with MOLT-4 leukemia, 2.82 µM; in the experiment on UACC-257 melanoma, 16.5 µM. In addition, the concentration for total growth inhibition (TGI) with MDA-MB-231 breast is 20.8 µM; in the experiment with RXF 393 renal, 30.1 µM; in the experiment on OVCAR-5 ovarian, 29 µM; with NCI-H23 lung it was 28 µM; in the experiment with SW-620 colon, 30.7 µM; in the experiment on A498 renal it was 35 µM. In addition, the TGI is more than 100 µM in the experiment on NCI-H522 lung, 23.1 µM in the experiment on SF-295 CNS, 7.41 µM with MOLT-4 leukemia and 32.5 µM with UACC-257 melanoma.

Take `COc1ccc(C#Cc2ccccc2C#CCCCCO)cc1`: the GI50 with MDA-MB-231 breast is 17.3 µM; in the experiment with RXF 393 renal it was 16 µM; in the experiment with OVCAR-5 ovarian it was 18.7 µM; in the experiment with NCI-H23 lung, 19.2 µM; in the experiment on SW-620 colon, 17.8 µM; with A498 renal, 24.1 µM. Besides, the GI50 with NCI-H522 lung is 18.6 µM; with SF-295 CNS it was 18.7 µM; in the experiment with MOLT-4 leukemia it was 18.3 µM; in the experiment on UACC-257 melanoma, 19.5 µM. Also, the TGI was 32.2 µM in the experiment with MDA-MB-231 breast; 33.6 µM in the experiment on RXF 393 renal; 37.6 µM in the experiment with OVCAR-5 ovarian; 40.5 µM with NCI-H23 lung; 34.8 µM in the experiment with SW-620 colon; 66.4 µM in the experiment on A498 renal. For the same compound, the TGI in the experiment with NCI-H522 lung turned out to be 34.9 µM; with SF-295 CNS, 34.6 µM; in the experiment on MOLT-4 leukemia, 39.2 µM; in the experiment with UACC-257 melanoma it was 35.8 µM.

As a reminder, the GI50 is the concentration at which growth is held to half of that of the control. For orientation: TGI means the concentration at which net growth stops. A lower TGI goes with more potent growth arrest.
